Test: Human HepG2 cell viability assay in 384 well format
Assay type: toxicity, cell-based
Set-up: dose 125 nL, time 70.5 hour; concentration not given beside the values
Settings: HepG2 cells, read-out: Inhibition

Compound	cytotoxicity at 70.5 h
Cc1ccc(S(=O)(=O)Cc2nnc(C)n2C)cc1	-2.49%
O=C(Nc1ccc2c(c1)C(=O)NC2=O)c1cccs1	-4.03%
CC(C)c1nnc2n1CCN(Cc1cccc3c1OCCO3)C2	30%
CC1CCC(O)(CSc2nnnn2C2CC2)CC1 (centres undefined)	-1.68%
O=S(=O)(NCCCn1cncn1)c1ccc2c(c1)CCO2	-5.26%
CC1CN(CC(=O)NCCc2ccccc2)CCN1c1nccs1 (centres undefined)	-5.41%
COc1ccccc1CNC(=O)N1CCCC(CO)C1 (centres undefined)	11.7%
COc1cc(NC(=O)c2cccc(N(C)C)c2)cc(OC)c1	-7.19%
CCc1noc(C(C)N2CCC(NS(=O)(=O)c3cccs3)CC2)n1 (centres undefined)	-11.6%
CC(c1nc(C2CC2)no1)N1CCC(NS(=O)(=O)c2cccs2)CC1 (centres undefined)	-13.4%
COc1cc(C(=O)NC2COc3ccccc3C2)ccc1OCC(N)=O (centres undefined)	-9.85%
O=C(CN1CCc2cncnc2C1)NC1CCCCNC1=O (centres undefined)	0.54%
CCn1ccnc1CN1CCCN(C(=O)c2cncnc2C)CC1	0.803%
NC1(c2nc(-c3cccs3)cc(=O)[nH]2)CCCC1	8.08%
Cn1nc2c(cc1=O)CN(CC(=O)NC1CCCCNC1=O)CC2 (centres undefined)	12.7%
O=C(NCCc1nncn1C1CC1)C1SCCc2sccc21 (centres undefined)	-8.14%
COCCN(C(=O)c1ccc(OC)cc1)c1ccc(C#N)cc1	10.5%
COc1ccccc1CC(NC(=O)N1CCOCC1)C(C)C (centres undefined)	17.3%
CC(=O)N1CCCN(Cc2csc(C)n2)c2ccccc21	-2.52%
CNC(=O)c1coc(-c2csc(C)n2)c1	-6.74%

Compound	cytotoxicity at 70.5 h
COc1cccc(/C=C/CCN2CCN(S(C)(=O)=O)CC2)c1	-3.47%
COc1cc(NC(=O)N(C)CC2CC2)ncn1	-7.89%
Cc1nc(C(C)(C)NCc2ncc(C(C)C)o2)sc1C	-5.11%
CC(=O)N1CCCN(Cc2ccon2)c2ccccc21	18.6%
COCCN(CCOC)C(=O)c1ccoc1C	-6.19%
CCOCCN1CCN(CC(=O)NC2(C#N)CCCC2)CC1CC (centres undefined)	0.4%
Cc1ncncc1C(=O)N1CCCN(Cc2ncc(Cl)n2C)CC1	-1.21%
COc1ccccc1NCC(=O)Nc1cnn(Cc2ccccn2)c1	-3.02%
COc1cccc(/C=C/CCN2CCCN(C(C)=O)CC2)c1	-6.2%
CCOc1ccccc1N(C)Cc1nccn1C	4.63%
Cc1ccc2cccc(C(=O)NCCOCC3CC3)c2n1	-0.418%
O=C(NCCc1cccnc1)NCCc1cccs1	2.09%
CC(C)Cc1noc(CN2CCC(C(=O)NCC3CCCO3)CC2)n1 (centres undefined)	10.6%
COCCn1nc(C(=O)N2CCOCC2C)ccc1=O (centres undefined)	16.9%
COc1ccncc1NC(=O)C1(c2ccc(F)cc2)CCC1	-6.62%
COC(=O)c1ccc(N2CCN(C(=O)C3CCC3)C(C)C2)cc1 (centres undefined)	17.6%
COC(=O)CCNC(=O)c1nnn(-c2ccccc2)c1C(F)(F)F	0.121%
Cc1nnc2n1CCN(CC(=O)NC(C)c1ccc3ccccc3c1)C2 (centres undefined)	17.7%
COC(=O)c1ccc(N2CCN(C(=O)CC(F)(F)F)C(C)C2)cc1 (centres undefined)	-9.89%
Cc1cc(C(=O)NC2(C#N)CCCC2)c(C)n1-c1cccnc1	-6.05%

Compound	cytotoxicity at 70.5 h
CCc1nc(CNC2CCN(c3ccc(OC)cc3)CC2)cs1	-5.26%
Cc1c(C(=O)N2CCCOCC2)nnn1-c1cccc2cnccc12	-0.438%
Cc1cc(NC(=O)CNC(C)(C)c2nc(C)c(C)s2)no1	-7.18%
Cn1c(=O)[nH]c2cc(C(=O)OCCCn3ccccc3=O)ccc21	33.2%
NC(=O)NC(=O)CCN1CCN(CC2CC2)c2ccccc21	31.2%
NC(=O)NC(=O)CN1CCN(CC2CC2)c2ccccc21	8.16%
Cc1c(C(=O)N2CC(C)(C)C2(C)C)nnn1-c1cccc2cnccc12	-2.78%
Cc1c(C(=O)N2CC(O)C2)nnn1-c1cccc2cnccc12	-8.03%
COc1ccccc1C(=O)N(Cc1nc(C)cs1)CC1CCCO1 (centres undefined)	22.1%
CC(C)Cc1noc(CNc2cccc(-c3nnnn3C)c2)n1	-11%
Cc1csc(CN(CC2CCCO2)C(=O)c2ccc(C)nc2C)n1 (centres undefined)	15.4%
CCOCCOC(C)C(=O)NCc1ccc(N2CCCCC2)cc1 (centres undefined)	0.804%
Cc1csc(CN(CC2CCCO2)C(=O)c2occc2C)n1 (centres undefined)	22.1%
CS(=O)(=O)NCC1CCCCN1Cc1cccc(C#N)c1 (centres undefined)	-1.33%
CCOc1ccnc(N2CCCN(c3nc(CC)ns3)CC2)n1	-2.91%
CC(C(=O)Nc1ccc(C#N)cc1)N1CCc2ccccc21 (centres undefined)	43.4%
c1csc(-c2nc(CN3CCN(c4cnccn4)CC3)co2)c1	-18.4%
CCNC(=O)NC(=O)C(C)Nc1ccccc1OCCOC (centres undefined)	-11.3%
CN(CC(=O)Nc1nc2c(s1)CCC2)C(=O)c1cccs1	-12.8%

— ChEMBL document CHEMBL3507680, “University of Dundee, Gates Library screen for HepG2 cell viability”
